# What was measured:
# [1] = tested on: peritoneal macrophages; assay: ApoA1-dependent cholesterol efflux assay (reverse cholesterol transport) in peritoneal macrophages; assay type: cell-based, mice; conditions: 1.0 μM
# Source text: The individual contributions of both receptors to macrophage gene expression were examined by first measuring the amount of mRNA encoding LXRα and LXRβ in thioglycolate-elicited peritoneal macrophages obtained from mixed wildtype mice. Thioglycolate-elicited peritoneal macrophages were isolated from mice 4 days after peritoneal injection of thioglycolate media. Peritoneal macrophages were harvested by lavage of the peritoneum with phosphate buffered saline (PBS), cells were washed, transferred to 60 mm culture plates and incubated at 37° C. in RPMI 1640 media (Life Technologies) containing 10% FBS, 2 mmol/L glutamine, 100 μg/mL streptomycin and 100 IU penicillin (Life Technologies). After 5 hours at 37° C., cells were washed 5 times with PBS to remove non-adherent cells and adherent cells were further incubated in RPMI 1640 media supplemented with 10% FBS for 24 hours. To determine the mRNA levels of LXRα and LXRβ, after 24 hours total RNA was isolated from cultured macrophages using RNeasy kits (QIAGEN Inc.) according to the supplier's total RNA isolation procedure. The RNA samples were further treated with deoxyribonuclease I to eliminate contaminating genomic DNA. LXRα and LXRβ mRNA levels were than analyzed by real-time based quantitative PCR using Perkin Elmer ABI Prism 7700 and Sequence Detection System software (Perkin Elmer). […] Since ABCA1 is involved in mediating reverse cholesterol transport, peritoneal macrophages isolated as described above and cultured for 24 hours in the absence or presence of LXR agonist (1.0 μM Compound 1) were examined in a cholesterol efflux assay which measures reverse cholesterol transport in vitro. Mouse peritoneal macrophages isolated as described above from wildtype (mixed and C57BL/6), LXRα−/− (C57BL/6), LXRβ−/−, and LXRαβ−/− mice were cultured in 96 well plates (5×10^4 cells/well) at 37° C. After 24 hours, cells were labeled for 48 hours with 0.2 μCi/ml ^14C-cholesterol in RPMI 1640 medium with 1% FBS. Following the labeling period, ^14C-cholesterol was removed and the cells were cultured for 24 hours in serum free RPMI 1640 media in the presence or absence of 10 μg/ml apolipoprotein A (ApoA1). In this assay ApoA1 acts as a cholesterol acceptor and mimics the cholesterol-accepting function performed by HDL particles in vivo. Following this incubation, the media is removed, cells are washed and than lysed with 0.2 M sodium hydroxide. To determine ApoA1-dependent cholesterol efflux, the amount of ^14C-cholesterol present in the media is divided by the total counts (media+cell lysate) and the value determined in the absence of ApoA is subtracted from the value determined in the presence of ApoA. […] No effect is observed upon elimination of LXRα alone.
# [2] = target: T1, LXRα (Homo sapiens, UniProt Q13133); conditions: stated as considered, no test described; cited from earlier work
# T1 sequence (Q13133 1-447): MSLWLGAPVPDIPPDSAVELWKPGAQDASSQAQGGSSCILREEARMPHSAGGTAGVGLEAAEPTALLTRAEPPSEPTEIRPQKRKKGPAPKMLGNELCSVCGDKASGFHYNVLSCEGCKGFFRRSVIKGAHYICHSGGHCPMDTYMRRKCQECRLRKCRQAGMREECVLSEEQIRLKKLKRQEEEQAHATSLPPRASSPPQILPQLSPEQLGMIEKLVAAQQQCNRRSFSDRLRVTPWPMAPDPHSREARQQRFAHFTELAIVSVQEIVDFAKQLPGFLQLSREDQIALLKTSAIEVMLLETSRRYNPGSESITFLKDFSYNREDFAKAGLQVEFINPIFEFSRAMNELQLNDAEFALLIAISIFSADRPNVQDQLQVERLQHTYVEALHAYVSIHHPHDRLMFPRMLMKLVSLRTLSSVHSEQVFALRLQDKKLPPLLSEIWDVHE
# [3] = Plasma triglyceride levels in wildtype and LXR knockout mice after oral dosing; assay type: in vivo; conditions: 10 mg/kg daily oral gavage, 7 days
# Source text: (§1) To decipher the physiological roles of LXRα and LXRβ mice, seven different lines of mice encompassing four unique LXR genotypes (LXRα+/+, LXRβ+/+=wildtype; LXRα−/−, LXRβ+/+=LXRα−/−; LXRα+/+, LXRβ−/−=LXRβ−/−; LXRα−/−, LXRβ−/−=LXRαβ−/−) were studied. Genetic knockouts of LXRα( LXRα−/−) were generated in two independent mouse strain backgrounds (C57BL/6 and A129). Genetic knockouts of LXRβ (LXRβ−/−) and the double knockout of LXRα and LXRβ (LXRαβ−/−) were generated in a mixed genetic background (C57BL/6×A129). The three appropriate wildtype (LXRα+/+, LXRβ+/+) mouse lines were used as controls. Mice from each line were treated for seven days with 10 mg compound/kg body weight of the LXR agonist Compound 1: N-(2,2,2-trifluoroethyl)-N-[4-(2,2,2- trifluoro-1-hydroxy-1-trifluoromethylethyl)-phenyl]-benzene sulfonamide. […] Compound 1 was administered by daily oral gavage in a sesame oil/ethanol vehicle via a 1-cc syringe fitted with a 20G disposable feeding needle. Compound was solvated in ethanol (5% final volume) and brought up to final volume with sesame oil (Sigma, St. Louis, Mo.).
# To determine the ability of Compound 1 to elevate serum triglycerides non-fasting mice were anesthetized with isofluorane and blood samples were obtained by retro-orbital plexus puncture. Blood samples were collected before the first dose and three hours after dosing on day 1, day 3 and day 7 into heparinized tubes. Samples were centrifuged to obtain plasma and stored at −20° C. Plasma triglyceride levels were determined using a colorimetric enzymatic assay adapted to a 96 well plate format (Infinity Triglyceride Reagent, Sigma, St. Louis, Mo.). Sigma glycerol standards (Sigma, St. Louis, Mo.) were use to generate standard curves. The absorbance of the samples and standards were read using a Multiskan plate reader.
# [4] = tested on: lipoprotein lipase (LPL) mRNA; assay: Liver lipoprotein lipase (LPL) mRNA by quantitative PCR in treated mice; assay type: in vivo; conditions: 10 mg/kg daily oral; for LPL mRNA induction: day 7
# Source text: as §1
compound,measurement,setting,value
"O=S(=O)(c1ccccc1)N(CC(F)(F)F)c1ccc(C(O)(C(F)(F)F)C(F)(F)F)cc1 [Compound 1, N-(2,2,2-trifluoroethyl)-N-[4-(2,2,2-trifluoro-1-hydroxy-1-trifluoromethylethyl)-phenyl]-benzene sulfonamide]",reverse cholesterol transport (cholesterol efflux),[1]; LXRαβ−/− macrophages,further reduced
same,reverse cholesterol transport (cholesterol efflux),[1]; LXRα−/− (C57BL/6) macrophages,No effect
same,reverse cholesterol transport (cholesterol efflux),[1]; LXRβ−/− macrophages,significantly reduced
same,reverse cholesterol transport (cholesterol efflux),[1]; wildtype (mixed and C57BL/6) macrophages,stimulates reverse cholesterol transport
same,binding and activation of LXRα,[2],binds and activates both LXRα and LXRβ with similar potency and efficacy
same,effect on serum triglyceride levels,[3]; LXRβ−/− mice,no effect on the ability of LXR agonists to elevate triglycerides
same,effect on serum triglyceride levels,"[3]; mice lacking LXRα (LXRα−/−, LXRαβ−/−)",elevates serum triglyceride levels only in mice that have LXRα
same,effect on serum triglyceride levels,[3]; wildtype mice,elevates serum triglyceride levels
same,LPL mRNA induction,[4]; LXRα−/− mice (C57BL/6 and A129),completely blocks the pan-agonist induction of LPL
same,LPL mRNA induction,[4]; LXRβ−/− mice,little or no effect
same,fold induction at 10 mg/kg,"[4]; Mus musculus, 168 h, wildtype mice, day 7, read-out: LPL mRNA fold induction (+Compound 1/vehicle)",3 to 9

# — patent US6924311B2, “Methods for affecting various diseases utilizing LXR compounds” (X-Ceptor Therapeutics, Inc., priority 2001, dated 2005)
